How the values were obtained:
[1] = Detergency against keratotic plugs: penetration of the sample into keratotic plugs; set-up: species or system human; details: keratotic plugs kept in contact with sample for 1 minute; results of Table 1
Experimental: (§1) Keratotic plugs in the nasal region were removed with “Biore Nose Pack (manufactured by Kao Corporation)”, the resulting keratotic plugs on the pack were gently taken out with tweezers.
(§2) The resulting keratotic plugs were placed on a slide glass and were covered with a cover glass, and 0.05 mL of a sample was dropwise added to an edge of the cover glass. Consequently, the sample entered into the gap between the slide glass and the cover glass by capillary phenomenon and was brought into contact with the keratotic plugs. The contact of the keratotic plugs with the sample was recorded with a digital microscope (VHX-5000, manufactured by Keyence Corporation, magnification: ×150), and the penetration of the sample into the keratotic plugs and the collapse state of the keratotic plugs were evaluated after one minute from the contact of the keratotic plugs with the sample. The results of each evaluation are shown in the columns “Detergency against keratotic plugs (penetration)” and “Detergency against keratotic plugs (during cleansing)” in Tables. The measurements were performed at 25° C.
(§3) The penetration was relatively evaluated by 11 criteria from the state 1 “the sample hardly penetrated into the keratotic plug” to the state 11 “the sample penetrated to the center of the keratotic plug”. The collapsibility by the detergency against keratotic plugs was relatively evaluated by 11 criteria from the state 1 “almost no change is observed in the external appearance of the keratotic plug” to the state 11 “peeling or separation is observed in the area from the surface layer to the central portion of the keratotic plug (the initial appearance of the keratotic plug is not retained)”.

[2] = tested on: insoluble protein (zein protein); assay: Effect of suppressing protein aggregation (precipitation of insoluble protein); details: results of Table 1
Experimental: Thirty milliliters of a sample and 0.06 g of an insoluble protein (zein protein) were placed in a 35-mL standard glass bottle, and the concentration of the insoluble protein was adjusted to 0.2 mass % (test sample). Separately, a standard sample was prepared by using water instead of the sample and adjusting the concentration of the insoluble protein to 0.2 mass %. Subsequently, the standard glass bottles were sufficiently shaken and stirred up and down (shake width: 15 cm, 20 times at a shake rate of 5 times per 3 seconds) in a thermostatic chamber of 25° C. and were left to stand for 3 minutes. The precipitation state of the insoluble protein was then visually verified, and the ratio of the amount of the precipitated standard sample to the amount of the precipitated test sample (the height of the precipitate in each standard glass bottle was measured as the precipitation amount), (precipitation amount of standard sample)/(precipitation amount of test sample), was calculated. A higher ratio indicates a higher effect of suppressing protein aggregation.

[3] = Detergency against keratotic plugs during cleansing (collapse state); set-up: species or system human; details: keratotic plugs kept in contact with sample for 1 minute; results of Table 1
Experimental: as §1, §2, §3

[4] = Detergency against keratotic plugs after washing with water (collapse state); set-up: species or system human; details: keratotic plugs kept in contact with water for 1 minute after contact with sample
Source text: as §3
After one minute from the contact of the keratotic plugs with the sample, KimWipes (registered trademark) was brought into contact with an edge of the cover glass to remove the sample under the cover glass. Subsequently, 0.05 mL of water was dropwise added to an edge of the cover glass. The sample dropwise added with water was recorded with the digital microscope, and the collapse state of the keratotic plugs was evaluated after one minute from the contact of the keratotic plugs with water according to the criteria for evaluating collapsibility of the keratotic plugs. The results of the evaluation are shown in the column “Detergency against keratotic plugs (after washing with water)” in Table. The measurements were performed at 25° C.

[5] = cited from earlier work

| Compound | penetration into keratotic plugs (in words) [1] | action on proteins (in words) [2] | collapse of keratotic plugs on contact with sample (in words) [3] | collapse of keratotic plugs on contact with water after the sample (in words) [4] | solubility in water (in words) [5] |
| --- | --- | --- | --- | --- | --- |
| sodium polyoxyethylene (2) lauryl ether sulfate [POE (2) sodium lauryl sulfate] | hardly penetrated into the keratotic plugs | dissolve the proteins | did not progress | – | – |
| O=P([O-])([O-])[O-].[Na+].[Na+].[Na+] [trisodium phosphate] | hardly penetrated into keratotic plugs | – | did not progress | did not progress | – |
| CC(N)(CO)CO [AMPD, 2-amino-2-methyl-1,3-propanediol] | penetrated into keratotic plugs | – | – | accelerating the collapse | – |
| O=C([O-])O.[Na+] [sodium hydrogen carbonate] | hardly penetrated into keratotic plugs | – | did not progress | did not progress | – |
| CC(C)(N)CO [AMP, 2-amino-2-methyl-1-propanol] | penetrated into keratotic plugs | – | – | accelerating the collapse | readily dissolved in water |
| NC(CO)(CO)CO [Tris, 2-amino-2-hydroxymethyl-1,3-propanediol] | penetrated into keratotic plugs | – | – | accelerating the collapse | readily dissolved in water |
| O=P([O-])([O-])O.[Na+].[Na+] [disodium hydrogen phosphate] | hardly penetrated into keratotic plugs | – | did not progress | did not progress | – |

Reference: patent US11406576B2, “Method for removing keratotic plugs” (KAO CORPORATION, priority 2017, dated 2022)
